Here are results for 2 compounds from ChEMBL document CHEMBL5331115, “Design, Synthesis, and Pharmacological Characterization of a Potent Soluble Epoxide Hydrolase Inhibitor for the Treatment of Acute Pancreatitis” (J Med Chem, 2023).

Activity calls are given as the source filed them. The rule behind the calls is not given here.

Experiment [1] relates to Mus musculus. Description: Antiinflammatory activity in cerulein-induced CD-1 mouse assessed as reduction of cell infiltration at 10 mg/kg, ip administered on 0.5 and 2.5 hrs post first cerulein administration measured after 6 hrs by Hematoxylin and eosin staining based analysis. The experiment is classed as functional, organism-based.
For experiment [2], the target named is T1, Prostaglandin G/H synthase 2 (Mus musculus, UniProt Q05769).
T1 sequence (Q05769 whole entry): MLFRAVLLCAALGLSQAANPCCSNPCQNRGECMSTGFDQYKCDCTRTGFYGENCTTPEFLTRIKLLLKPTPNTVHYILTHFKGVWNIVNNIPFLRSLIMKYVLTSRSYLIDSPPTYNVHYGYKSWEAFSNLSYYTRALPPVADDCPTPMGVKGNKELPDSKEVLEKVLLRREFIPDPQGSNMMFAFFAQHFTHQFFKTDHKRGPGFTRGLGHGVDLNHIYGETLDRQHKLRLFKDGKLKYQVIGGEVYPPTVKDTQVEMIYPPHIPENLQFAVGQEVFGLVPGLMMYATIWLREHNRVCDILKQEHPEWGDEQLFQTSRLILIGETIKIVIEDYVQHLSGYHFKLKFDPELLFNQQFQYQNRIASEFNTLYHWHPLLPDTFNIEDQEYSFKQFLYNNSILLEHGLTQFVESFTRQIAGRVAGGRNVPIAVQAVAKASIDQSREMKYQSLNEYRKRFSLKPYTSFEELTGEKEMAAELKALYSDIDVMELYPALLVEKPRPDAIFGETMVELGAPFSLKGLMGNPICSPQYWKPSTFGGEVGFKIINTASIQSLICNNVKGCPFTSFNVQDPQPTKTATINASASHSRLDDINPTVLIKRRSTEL
Briefly: Inhibition of COX-2 in LPS-stimulated mouse J774 cells assessed as inhibition of PGE2 production pretreated for 2 hrs followed by stimulation with LPS measured after 24 hrs by ELISA analysis. The class given is cell-based.

Experiment [3] has as its system Mus musculus. Briefly: Antiinflammatory activity in cerulein-induced CD-1 mouse assessed as reduction in lung inflammation at 10 mg/kg, ip administered on 0.5 and 2.5 hrs post first cerulein administration measured after 6 hrs by Hematoxylin and eosin staining based analysis. The class given is functional, organism-based.
For experiment [4], the system named is Mus musculus. Description: Antiinflammatory activity in cerulein-induced CD-1 mouse assessed as reduction in lung neutrophilia at 10 mg/kg, ip administered on 0.5 and 2.5 hrs post first cerulein administration measured after 6 hrs by Hematoxylin and eosin staining based analysis. The class given is functional, organism-based.
The test system of experiment [5] is Mus musculus. Briefly: Antiinflammatory activity in cerulein-induced CD-1 mouse assessed as reduction in serum ALT at 10 mg/kg, ip administered on 0.5 and 2.5 hrs post first cerulein administration measured after 6 hrs by Hematoxylin and eosin staining based analysis. The class given is functional, organism-based.
Experiment [6] deals with Mus musculus. Description: Antiinflammatory activity in cerulein-induced CD-1 mouse assessed as reduction of neutrophil numbers at 10 mg/kg, ip administered on 0.5 and 2.5 hrs post first cerulein administration measured after 6 hrs by Hematoxylin and eosin staining based analysis. The class given is functional, organism-based.
Experiment [7] concerns Mus musculus. Description: Antiinflammatory activity in cerulein-induced CD-1 mouse assessed as reduction of edema at 10 mg/kg, ip administered on 0.5 and 2.5 hrs post first cerulein administration measured after 6 hrs by Hematoxylin and eosin staining based analysis. The experiment is classed as functional, organism-based.
Experiment [8] has as its system Mus musculus. Briefly: Antiinflammatory activity in cerulein-induced CD-1 mouse assessed as reduction in serum AST at 10 mg/kg, ip administered on 0.5 and 2.5 hrs post first cerulein administration measured after 6 hrs by Hematoxylin and eosin staining based analysis. The class given is functional, organism-based.
Experiment [9] relates to Mus musculus. Description: Antiinflammatory activity in cerulein-induced CD-1 mouse assessed as reduction in pancreatic injury at 10 mg/kg, ip administered on 0.5 and 2.5 hrs post first cerulein administration measured after 6 hrs by Hematoxylin and eosin staining based analysis. The class given is functional, organism-based.

As for `CC(C)c1ccc(Cn2ccc3cc(NC(=O)NCC45C[C@H]6C[C@@H](C4)C[C@@H](C5)C6)ccc32)cc1`, the outcome in the experiment with Mus musculus [1], in the experiment on Mus musculus [3], with Mus musculus [4], in the experiment with Mus musculus [5], with Mus musculus [6] and with Mus musculus [7] was Active. The result in the experiment on Mus musculus [8] was Active. Further, the IC50 in [2] is above 10 µM.
For the compound `O=C(O)CCCCCCCCCCCNC(=O)NC12CC3CC(CC(C3)C1)C2`, the result in the experiment with Mus musculus [9] was Active.
